According to the NIST ThermoML archive (doi:10.1021/je3007666):

Assay: relative permittivity at zero frequency (dimensionless); xn = mol fraction of the nth substance listed
Conditions: 100 kPa, Liquid, Dielectrometer

CC(C)CO [2-methyl-1-propanol] + CC(C)(C)O
relative permittivity at zero frequency
Conditions | 288.15 K | 293.15 K | 298.15 K | 303.15 K | 308.15 K
x2 = 0 | 19.51 | 18.71 | 17.96 | 17.23 | 16.53
x2 = 0.0497 | 19.46 | 18.65 | 17.85 | 17.09 | 16.37
x2 = 0.0999 | 19.37 | 18.52 | 17.74 | 16.96 | 16.21
x2 = 0.1502 | 19.24 | 18.38 | 17.57 | 16.78 | 16.05
x2 = 0.2002 | 19.09 | 18.24 | 17.43 | 16.62 | 15.84
x2 = 0.2497 | 18.94 | 18.08 | 17.25 | 16.42 | 15.63
x2 = 0.2998 | 18.78 | 17.89 | 17.08 | 16.22 | 15.44
x2 = 0.3507 | 18.6 | 17.71 | 16.88 | 16.01 | 15.2
x2 = 0.4003 | 18.43 | 17.53 | 16.7 | 15.8 | 14.97
x2 = 0.4497 | 18.26 | 17.36 | 16.49 | 15.57 | 14.74
x2 = 0.4998 | 18.11 | 17.15 | 16.3 | 15.34 | 14.47
x2 = 0.5501 | 17.93 | 16.96 | 16.07 | 15.07 | 14.22
x2 = 0.6012 | 17.74 | 16.74 | 15.83 | 14.8 | 13.93
x2 = 0.649 | 17.53 | 16.5 | 15.58 | 14.52 | 13.61
x2 = 0.7003 | 17.3 | 16.24 | 15.28 | 14.2 | 13.27
x2 = 0.751 | 17.02 | 15.93 | 14.96 | 13.84 | 12.91
x2 = 0.8007 | 16.68 | 15.59 | 14.59 | 13.46 | 12.49
x2 = 0.8499 | 16.3 | 15.17 | 14.17 | 13.03 | 12.06
x2 = 0.9002 | 15.8 | 14.67 | 13.69 | 12.53 | 11.55
x2 = 0.9489 | 15.21 | 14.08 | 13.13 | 11.97 | 11.01

CC(C)(C)O [2-methylpropan-2-ol] + CCC(C)O
relative permittivity at zero frequency
Conditions | 288.15 K | 293.15 K | 298.15 K | 303.15 K | 308.15 K
x1 = 0.0511 | 18.35 | 17.39 | 16.47 | 15.62 | 14.8
x1 = 0.1003 | 18.24 | 17.25 | 16.35 | 15.46 | 14.64
x1 = 0.1512 | 18.11 | 17.13 | 16.22 | 15.31 | 14.47
x1 = 0.199 | 17.97 | 16.98 | 16.06 | 15.15 | 14.28
x1 = 0.2498 | 17.85 | 16.83 | 15.92 | 14.98 | 14.1
x1 = 0.3007 | 17.71 | 16.67 | 15.77 | 14.79 | 13.92
x1 = 0.35 | 17.55 | 16.54 | 15.6 | 14.62 | 13.75
x1 = 0.3997 | 17.42 | 16.36 | 15.44 | 14.44 | 13.54
x1 = 0.4502 | 17.25 | 16.19 | 15.27 | 14.25 | 13.34
x1 = 0.5011 | 17.09 | 16 | 15.09 | 14.05 | 13.14
x1 = 0.5497 | 16.89 | 15.83 | 14.9 | 13.84 | 12.92
x1 = 0.6007 | 16.7 | 15.64 | 14.72 | 13.62 | 12.7
x1 = 0.6511 | 16.5 | 15.42 | 14.5 | 13.41 | 12.47
x1 = 0.701 | 16.28 | 15.17 | 14.26 | 13.17 | 12.23
x1 = 0.7497 | 16.03 | 14.93 | 14.03 | 12.89 | 11.96
x1 = 0.8005 | 15.76 | 14.68 | 13.78 | 12.63 | 11.68
x1 = 0.8488 | 15.49 | 14.39 | 13.5 | 12.32 | 11.39
x1 = 0.9003 | 15.19 | 14.07 | 13.18 | 12.01 | 11.07
x1 = 0.9496 | 14.84 | 13.72 | 12.84 | 11.68 | 10.74
x1 = 1 | 14.49 | 13.38 | 12.49 | 11.34 | 10.4
